In ChEMBL document CHEMBL1136821, “Modelling of carbonic anhydrase inhibitory activity of sulfonamides using molecular negentropy” (Bioorg Med Chem Lett, 2003):

Legend:
Carbonic anhydrase 2 = Carbonic anhydrase 2 (Homo sapiens, UniProt P00918); experiment: Inhibition of human carbonic anhydrase II (CAII)
Carbonic anhydrase 1 = Carbonic anhydrase 1 (Homo sapiens, UniProt P00915); experiment: Inhibition of human carbonic anhydrase I (CAI)
Carbonic anhydrase 4 = molecular target: T1, Carbonic anhydrase 4 (Bos taurus, UniProt Q95323); experiment: Inhibition of bovine carbonic anhydrase IV (CAIV)
T1 sequence (Q95323 whole entry): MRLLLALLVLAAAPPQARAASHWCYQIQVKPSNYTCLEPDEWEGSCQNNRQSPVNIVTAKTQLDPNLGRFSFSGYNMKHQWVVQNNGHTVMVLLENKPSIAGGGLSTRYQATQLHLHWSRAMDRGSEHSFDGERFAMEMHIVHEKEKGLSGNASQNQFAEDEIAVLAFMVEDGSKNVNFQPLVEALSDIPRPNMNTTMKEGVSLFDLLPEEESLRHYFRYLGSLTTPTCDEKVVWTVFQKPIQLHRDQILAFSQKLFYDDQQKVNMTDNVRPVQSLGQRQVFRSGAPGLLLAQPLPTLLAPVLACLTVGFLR

Chain of Carbonic anhydrase 1 (P00915 whole entry): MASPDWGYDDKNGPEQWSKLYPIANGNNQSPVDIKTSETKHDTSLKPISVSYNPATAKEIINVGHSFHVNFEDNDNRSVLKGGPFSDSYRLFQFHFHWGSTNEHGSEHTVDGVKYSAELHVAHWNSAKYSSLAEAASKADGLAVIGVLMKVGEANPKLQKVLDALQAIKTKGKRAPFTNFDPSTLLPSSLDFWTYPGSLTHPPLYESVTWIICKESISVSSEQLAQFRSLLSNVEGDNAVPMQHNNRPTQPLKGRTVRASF

Row | SMILES | Ki (Carbonic anhydrase 2) | Ki (Carbonic anhydrase 1) | Ki (Carbonic anhydrase 4)
1 | NS(=O)(=O)c1cccc(C(=O)c2cccc(C(=O)O)n2)c1 | 250 nM | 20000 nM | 305 nM
2 | NS(=O)(=O)c1ccc(NC(=O)c2cccc(C(=O)O)n2)cc1 | – | 21500 nM | 300 nM
3 | NS(=O)(=O)c1ccc(C(=O)c2cccc(C(=O)O)n2)cc1 | 132 nM | 15500 nM | 170 nM
4 | NS(=O)(=O)c1ccc(CON2C(=O)c3cccnc3C2=O)cc1 | 20 nM | 2040 nM | 120 nM
5 | NS(=O)(=O)c1ccc(CC(=O)c2cccc(C(=O)O)n2)cc1 | – | – | 79 nM
6 | NS(=O)(=O)c1ccc(CCON2C(=O)c3cccnc3C2=O)cc1 | 15 nM | 2000 nM | 105 nM
7 | NS(=O)(=O)c1ccccc1C(=O)c1cccc(C(=O)O)n1 | 280 nM | 21000 nM | 310 nM
8 | Nc1c(S(N)(=O)=O)cc(S(N)(=O)=O)c(N)c1Cl | – | 6100 nM | 175 nM

Next, values leading:

Row | Ki (Carbonic anhydrase 2) | Ki (Carbonic anhydrase 1) | Ki (Carbonic anhydrase 4) | SMILES
9 | 44 nM | 620 nM | 79 nM | NS(=O)(=O)c1ccc(C(=O)c2cccc(C(=O)O)n2)c(Cl)c1
10 | 12 nM | 500 nM | 69 nM | NS(=O)(=O)c1cc(S(N)(=O)=O)c(C(=O)c2cccc(C(=O)O)n2)c(Cl)c1C(=O)c1cccc(C(=O)O)n1
11 | – | 605 nM | 75 nM | NS(=O)(=O)c1ccc(C(=O)c2cccc(C(=O)O)n2)c(Br)c1
12 | 10 nM | 450 nM | 55 nM | NS(=O)(=O)c1cc(S(N)(=O)=O)c(NC(=O)c2cccc(C(=O)O)n2)c(Cl)c1NC(=O)c1cccc(C(=O)O)n1
13 | 8.99 nM | 906 nM | 54 nM | NS(=O)(=O)c1ccc(CCC(=O)c2cccc(C(=O)O)n2)cc1
14 | 8.99 nM | 600 nM | 60 nM | NS(=O)(=O)c1cc(S(N)(=O)=O)c(C(=O)c2cccc(C(=O)O)n2)cc1Cl
15 | 10 nM | 540 nM | 46 nM | NS(=O)(=O)c1ccc(C(=O)c2cccc(C(=O)O)n2)c(F)c1
16 | 33 nM | 610 nM | 70 nM | NS(=O)(=O)c1ccc(C(=O)c2cccc(C(=O)O)n2)c(I)c1
